The values that follow come from US20110097274A1, “Carbon-11 and fluorine-18 labeled radioligands for positron emission tomography (PET) imaging for the brain serotonin transporters” (priority 2002, published 2011).

Counter-ions that a name gives are not always drawn. Like-named read-outs stand apart in the source and are kept apart here. Where only a bound is given, the exact number is not on record here.

For data set [1], the target named is T1, SERT (Rattus norvegicus, UniProt P31652). Also noted: host or cells: rat brain membranes (for ADAM/IDAM). Conditions: literature; [^125I] ligands in rat brain membranes; cited from earlier work.
Data set [2] has as its target T2, serotonin transporter (SERT) (Rattus norvegicus, UniProt P31652).
T2 construct: membranes prepared from either the rat cortical tissues or cells expressed with cloned-human transporters; from tissue; host or cells: rat cortical tissue membranes (inferred; the alternative is cells expressing cloned human SERT)
Description: In vitro binding affinity for SERT, radioligand [^3H]paroxetine (Table 1). Also on record: species or system rat or human (cloned). The procedure:
(§1) Selected compounds were assayed in vitro for their binding affinity for the dopamine transporter (DAT), serotonin transporter (SERT), and norepinephrine transporter (NET) using membranes prepared from either the rat cortical tissues or cells expressed with cloned-human transporters and radioligands. Radioligands used were [^3H]paroxetine (SERT), [^3H]nisoxetine (NET), and [^3H]GBR12935 (DAT).

The target of data set [3] is T1, SERT. Kind of data set: In vitro binding assay on rat frontal cortex homogenates using [^3H]paroxetine. Also on record: from tissue; host or cells: frontal cortex of male Sprague-Dawley rats, washed membrane homogenate. Conditions: mean ± SD, n = 3. The procedure:
In vitro binding assays: Measurement of the inhibition constants (Ki) of the labeled compounds in FIG. 1 on rat frontal cortex homogenates were performed at Columbia University using [^3H]paroxetine, as previously described (Laruelle et al., 1988b). Briefly, male Sprague-Dawley rats (250-300 g) were killed by decapitation. Dissection of the brain was carried out on ice and samples of the frontal cortex were stored at −40° C. until binding assay. After thawing, samples were homogenized in 10 volumes of buffer (50 mM Tris-HCl, pH 7.4, 120 mM NaCl and 5 mM KCl). The homogenates were centrifuged at 10,000 rpm for 10 minutes. Pellets were resuspended in 10 volumes of buffer, incubated at 37° C. for 10 minutes, and centrifuged again. This procedure was then repeated a third time.
For the binding assay, membranes were suspended in buffer at a final protein concentration of 5 mg/mL. Unlabelled drugs were dissolved in dimethyl sulfoxide (DMSO) in borosilicate glass tubes to yield a 1 mM stock solution, from which subsequent serial dilutions were performed with the buffer. Aliquots of tissue preparation were incubated with [^3H]paroxetine (0.1 nM) at 22° C. or 37° C. for 60 minutes in the absence or presence of unlabelled drug (10^−5 to 10^−12 M) to yield a final volume of 0.5 mL (borosilicate glass tubes). Nonspecific binding was defined by incubation with 10 μM of citalopram. Each concentration was performed in triplicates. After incubation, the mixture was rapidly filtered through Whatman GF/B glass fiber filters using a 48-channel cell harvester (Brandel, Gaithersburg, Md.). The filters were washed 3 times with 4 mL each of ice cold buffer, placed in vials with 4 mL Ultima Gold solvent (Packard Instrument Co., Downers Grove, Ill.), and counted the following day for radioactivity in a liquid scintillation counter (Tricarb 1500, Packard Instrument Co., Downers Grove, Ill.). This experiment was performed three times at 22° C. and 37° C., on three different days. Ki values were derived using GraphPad Prism software (San Diego, Calif.).

Data set [4] is described as follows: In vitro logP measurement, octanol/phosphate buffer pH 7.4. It counts as physicochemical. The note with it: octanol/phosphate buffer pH 7.4, radiolabeled compound, mean ± SD, n = 8. The method, then: In vitro logP measurement: Octanol/water partition coefficient of the radiolabeled compounds were measured at Columbia University, using the method of Wilson et al. (2001), with some modifications. Briefly, 300 to 500 μCi of radioligand in EtOH was added to a separatory funnel containing octanol (20 mL) and phosphate buffer (20 mL, pH 7.4). The mixture was shaken mechanically for 3 minutes and the layers were separated. The octanol layer (15 mL) was transferred to a second separatory funnel containing 15 mL of the phosphate buffer (pH 7.4). The mixture was shaken mechanically for 3 minutes and the layers were separated. This second octanol layer was then partitioned into four test tubes (2 mL each) and the phosphate buffer (2 mL each) added. The test tubes were vortexed for 10 minutes, and then centrifuged for 10 minutes at 1000 rpm to separate the layers. The octanol and aqueous phases (1.0 mL each) were transferred into counting tubes and counted with a gamma counter (Wallac 1480 Wizard 3M Automatic Gamma Counter, Perkin-Elmer, Boston, Mass.). The radioactivity counts were decay-corrected and the partition coefficient calculated as P=counts in octanol/counts in buffer. Eight separate measurements were preformed for each tracer.

Data set [5] addresses T3, dopamine transporter (DAT) (Homo sapiens, UniProt Q01959).
T3 construct: host or cells: either rat cortical tissue or cells expressing the cloned human transporter
Description: In vitro binding affinity for DAT, radioligand [^3H]GBR12935 (Table 1). Also noted: species or system rat or human (cloned). The method, then:
as §1

Data set [6] concerns the target T4, norepinephrine transporter (NET) (Homo sapiens, UniProt P23975).
T4 construct: host or cells: either rat cortical tissue or cells expressing the cloned human transporter
Kind of data set: In vitro binding affinity for NET, radioligand [^3H]nisoxetine (Table 1). Also noted: species or system rat or human (cloned). The method, then: as §1

The conditions of data set [7]: humans, literature; cited from earlier work.
Data set [8] has as its target SERT. The note with it: literature; cited from earlier work.
For data set [9] the following is noted: literature (Laruelle et al., 1994a); cited from earlier work.
Setting [10] is: 22° C., read-out: Ki for SERT at 22° C.
[11] abbreviates: 37° C., read-out: Ki for SERT at 37° C.

T2 sequence (P31652 whole entry): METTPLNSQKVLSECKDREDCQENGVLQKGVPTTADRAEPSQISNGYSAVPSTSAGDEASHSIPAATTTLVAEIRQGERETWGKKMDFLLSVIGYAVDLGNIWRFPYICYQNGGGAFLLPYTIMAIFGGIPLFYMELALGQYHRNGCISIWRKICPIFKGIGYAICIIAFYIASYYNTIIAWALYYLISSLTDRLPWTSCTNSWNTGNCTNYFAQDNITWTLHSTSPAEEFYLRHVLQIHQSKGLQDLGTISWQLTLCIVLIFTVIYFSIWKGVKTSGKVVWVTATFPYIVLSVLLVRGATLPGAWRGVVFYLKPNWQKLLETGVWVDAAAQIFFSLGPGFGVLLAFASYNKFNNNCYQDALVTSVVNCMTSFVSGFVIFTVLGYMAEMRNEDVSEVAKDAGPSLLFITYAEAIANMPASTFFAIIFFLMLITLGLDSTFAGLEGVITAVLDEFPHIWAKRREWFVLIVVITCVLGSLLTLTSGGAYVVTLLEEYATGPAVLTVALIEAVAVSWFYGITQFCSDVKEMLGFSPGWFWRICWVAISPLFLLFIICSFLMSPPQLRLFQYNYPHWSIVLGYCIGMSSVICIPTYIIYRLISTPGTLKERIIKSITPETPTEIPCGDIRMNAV
T1 sequence (P31652 whole entry): as above
T3 sequence (Q01959 whole entry, species assumed): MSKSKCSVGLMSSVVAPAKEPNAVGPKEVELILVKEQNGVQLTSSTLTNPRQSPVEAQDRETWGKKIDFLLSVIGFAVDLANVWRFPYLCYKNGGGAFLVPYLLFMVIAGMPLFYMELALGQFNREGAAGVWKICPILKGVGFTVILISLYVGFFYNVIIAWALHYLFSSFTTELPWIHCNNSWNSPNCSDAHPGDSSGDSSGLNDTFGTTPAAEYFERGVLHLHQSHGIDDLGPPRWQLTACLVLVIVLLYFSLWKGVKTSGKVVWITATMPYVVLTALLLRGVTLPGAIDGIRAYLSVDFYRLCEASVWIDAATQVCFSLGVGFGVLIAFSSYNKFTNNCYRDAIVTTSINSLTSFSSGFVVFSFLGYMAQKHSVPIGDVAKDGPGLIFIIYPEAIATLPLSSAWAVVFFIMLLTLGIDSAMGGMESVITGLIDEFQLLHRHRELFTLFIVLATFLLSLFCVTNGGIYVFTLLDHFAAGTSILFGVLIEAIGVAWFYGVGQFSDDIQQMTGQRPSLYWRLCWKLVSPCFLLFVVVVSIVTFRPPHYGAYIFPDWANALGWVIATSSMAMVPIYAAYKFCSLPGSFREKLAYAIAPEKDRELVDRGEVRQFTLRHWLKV
T4 sequence (P23975 whole entry, species assumed): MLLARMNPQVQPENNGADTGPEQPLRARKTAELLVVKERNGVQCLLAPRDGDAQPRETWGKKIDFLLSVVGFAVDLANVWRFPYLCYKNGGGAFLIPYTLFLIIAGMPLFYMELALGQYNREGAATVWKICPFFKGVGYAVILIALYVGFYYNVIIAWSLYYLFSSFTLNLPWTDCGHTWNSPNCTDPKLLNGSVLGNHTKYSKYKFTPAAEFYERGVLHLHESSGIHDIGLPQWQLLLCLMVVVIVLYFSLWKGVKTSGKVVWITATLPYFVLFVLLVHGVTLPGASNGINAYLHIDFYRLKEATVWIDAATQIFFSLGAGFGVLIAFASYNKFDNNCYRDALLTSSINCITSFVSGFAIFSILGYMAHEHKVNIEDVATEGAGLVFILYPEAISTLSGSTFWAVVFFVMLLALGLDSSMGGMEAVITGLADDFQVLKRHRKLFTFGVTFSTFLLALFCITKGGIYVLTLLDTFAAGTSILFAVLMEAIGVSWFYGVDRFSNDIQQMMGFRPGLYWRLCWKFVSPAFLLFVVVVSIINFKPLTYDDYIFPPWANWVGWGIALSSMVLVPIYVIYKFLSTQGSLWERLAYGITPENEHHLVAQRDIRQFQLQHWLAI

Consider `CN(C)Cc1ccccc1Sc1ccc([125I])cc1N` [[^125I]ADAM], for which the Ki at SERT [1] was 0.15 nM.

For the compound `CN(C)Cc1ccccc1Sc1ccc(C#N)cc1N` [DASB, 3-amino-4-{2-[(dimethylamino)methyl]phenylthio}benzonitrile], the Ki was 0.87 nM in data set [2] (read-out: Ki SERT), 0.87 ± 0.41 nM on SERT [3] (setting [10]), 1.77 ± 0.25 nM on SERT [3] (setting [11]) and > 10000 nM in [5]. The compound also gave a logP in data set [4] of 2.38 ± 0.03.

Turning to `CN(C)Cc1ccccc1Sc1ccc(CF)cc1N` [AFM, 2-(2-(Dimethylaminomethyl)phenylthio)-5-fluoromethylphenylamine], the Ki in data set [2] is 0.23 nM; in data set [6], 664 nM; on SERT [3] (setting [10]) it was 0.23 ± 0.04 nM; on SERT [3] (setting [11]) it was 0.42 ± 0.12 nM; in [5] it was > 10000 nM. The logP in data set [4] was found to be 2.44 ± 0.03.

For `CN(C)Cc1ccccc1Sc1ccc(I)cc1N` [ADAM, 2-{2-[(dimethylamino)methyl]phenylthio}-5-iodophenylamine], the Ki in data set [2] was 0.32 nM; in [6], 1350 nM; on SERT [3] (setting [10]), 0.32 ± 0.11 nM; on SERT [3] (setting [11]), 0.4 ± 0.16 nM; at SERT [1], 0.15 nM; in data set [5] it was > 10000 nM. In data set [4], this compound showed a logP of 3.31 ± 0.13.

For the compound `COc1c(O[11CH3])cccc1[C@H](O)C1CCN(CCc2ccc(F)cc2)CC1` [[^11C]MDL 100907], the “VT CER (nonspecific distribution volume)” value in data set [7] is 18 ± 4 mL/g.

Regarding `CN(C)Cc1ccccc1Sc1ccc(I)cc1CO` [[^123I]IDAM, 5-iodo-2-((2-((dimethylamino)methyl)phenyl)thio)benzyl alcohol], on SERT [8], the Kd was 0.25 nM.

Take `CNCc1ccccc1Sc1ccc(F)cc1N` (as salt: tartrate) [Example 41, 5-Fluoro-2-(2-(methylaminomethyl)phenylthio)phenylamine]: the melting point fell in the range of 106 to 108 °C.

Compound `CN(C)Cc1ccccc1Sc1ccc(F)cc1N` (as salt: tartrate) [AFA, 2-(2-(Dimethylaminomethyl)phenylthio)-5-fluorophenylamine] returned a melting point of 158 to 159 °C.

As to `COC(=O)C1C(c2ccc([123I])cc2)CC2CCC1N2C` (stereo not drawn) [[^123I]β-CIT, [^123I]2β-carbomethoxy-3β-(4-iodophenyl)tropane], in [7], the “VT CER (nonspecific distribution volume)” value was 28 ± 3 mL/g. In data set [9], the Plasma free fraction is on record as 40±5%.

On to `CN(C)Cc1ccccc1Sc1ccc(I)cc1CO` [[^125I]IDAM], for which, on SERT [1], the Ki was 0.25 nM.

With `CN(C)Cc1ccccc1Sc1ccc(Br)cc1N` [DAPA, 5-bromo-2-{2[(dimethylamino)methyl]phenylthio}phenylamine], the Ki on SERT [3] (setting [10]) was determined as 0.38 ± 0.24 nM; at SERT [3] (setting [11]), 0.33 ± 0.13 nM. In data set [4], the logP is 3.06 ± 0.12.

Compound `CNCc1ccccc1Sc1ccc(C)cc1N` (as salt: tartrate) [Example 39, 5-Methyl-2-(2-(methylaminomethyl)phenylthio)phenylamine] yielded a melting point of 164 to 166 °C.

Compound `CN(C)Cc1ccccc1Sc1ccc(CF)cc1N` (as salt: tartrate) [AFM, 2-(2-(Dimethylaminomethyl)phenylthio)-5-fluoromethylphenylamine] displayed a melting point of 142 to 143 °C.
